Converted amounts (≈) assume the structure as drawn.
How the values were obtained:
Assay type in all cases: functional
[1] = system: Mycobacterium tuberculosis; test: Antitubercular activity against capreomycin-resistant Mycobacterium tuberculosis H37Rv ATCC 27294 assessed as growth inhibition after 16 to 24 hrs by microplate-Alamar Blue assay
[2] = system: Mycobacterium tuberculosis; test: Antitubercular activity against moxifloxacin-resistant Mycobacterium tuberculosis H37Rv ATCC 27294 assessed as growth inhibition after 16 to 24 hrs by microplate-Alamar Blue assay
[3] = system: Mycobacterium tuberculosis; test: Antitubercular activity against isoniazid-resistant Mycobacterium tuberculosis H37Rv ATCC 27294 assessed as growth inhibition after 16 to 24 hrs by microplate-Alamar Blue assay
[4] = system: Mycobacterium tuberculosis; test: Antitubercular activity against rifampin-resistant Mycobacterium tuberculosis H37Rv ATCC 27294 assessed as growth inhibition after 16 to 24 hrs by microplate-Alamar Blue assay

Row | SMILES | MIC [1] [µM] | MIC [2] [µM] | MIC [3] [µM] | MIC [4] [µM]
1 | Fc1ccc(C(F)(F)F)cc1-c1csc(Nc2cc(Cl)cc(Cl)c2)n1 | 12 (≈ 4.89 µg/mL) | 12 (≈ 4.89 µg/mL) | 7.1 (≈ 2.89 µg/mL) | 9.7 (≈ 3.95 µg/mL)
2 | CO[C@H]1/C=C/O[C@@]2(C)Oc3c(C)c(O)c4c(O)c(c(/C=N/N5CCN(C)CC5)c(O)c4c3C2=O)NC(=O)/C(C)=C\C=C\[C@H](C)[C@H](O)[C@@H](C)[C@@H](O)[C@@H](C)[C@H](OC(C)=O)[C@@H]1C [RIFAMPIN] | 0.05 (≈ 0.0411 µg/mL) | 0.14 (≈ 0.115 µg/mL) | 0.06 (≈ 0.0494 µg/mL) | > 4
3 | O=[N+]([O-])c1cn2c(n1)OC[C@@H](OCc1ccc(OC(F)(F)F)cc1)C2 [PRETOMANID] | 1.26 (≈ 0.453 µg/mL) | 0.88 (≈ 0.316 µg/mL) | 0.43 (≈ 0.154 µg/mL) | 0.51 (≈ 0.183 µg/mL)
4 | Fc1ccc(C(F)(F)F)cc1-c1csc(Nc2ccc(Cl)cc2)n1 | 17.4 (≈ 6.49 µg/mL) | 15.5 (≈ 5.78 µg/mL) | 10.4 (≈ 3.88 µg/mL) | 10.9 (≈ 4.06 µg/mL)
5 | NNC(=O)c1ccncc1 [ISONIAZID] | 0.81 (≈ 0.111 µg/mL) | 3.6 (≈ 0.494 µg/mL) | > 8 | 0.85 (≈ 0.117 µg/mL)

Source: ChEMBL document CHEMBL3102705, “Design, synthesis and investigation on the structure-activity relationships of N-substituted 2-aminothiazole derivatives as antitubercular agents” (Eur J Med Chem, 2014)
